Experimental data reported in US8329672B2, “Oral and/or topical compositions comprising prebiotics and fatty acid” (Cognis IP Management GmbH, priority 2004, dated 2012).

What was measured:
Bifidobacterium = assay: Stimulation of growth of Bifidobacterium in vitro (enumeration in human faecal homogenate culture); format: cell-based, Bifidobacterium spp; conditions: human faecal homogenate in diluted WC broth, incubated up to 24 hours, control 1.0 × 10^6
Procedure: (§1) The stimulation of growth of microorganisms has been studied by enumerating bifidobacterium and lactobacilli in vitro in the presence of various test substances. More specifically, aliquots (1 mL) of human faecal homogenates (10 g per 100 mL diluent) were added to diluted WC broth (diluted 50:50 with 0.05M phosphate buffer) to which were added the test mixtures and a lactobacillus or bifidobacterium strain. For each of the combinations, parallel tubes were prepared with one set being inoculated with Bifidobacterium spp or Lactobacillus spp. All mixtures were then incubated for up to 24 hours and bacterial numbers enumerated.

Lactobacterium = assay: Stimulation of growth of lactobacilli in vitro (enumeration in human faecal homogenate culture); format: cell-based, Lactobacillus spp; conditions: human faecal homogenate in diluted WC broth, incubated up to 24 hours, control 2.8 × 10^5
Procedure: as §1

OC[C@H]1O[C@@H](O[C@H]2[C@H](O)[C@@H](O)[C@@H](O[C@]3(CO)O[C@H](CO)[C@@H](O)[C@@H]3O)O[C@@H]2CO)[C@H](O)[C@@H](O)[C@H]1O [C2, Lactosucrose]
Bacterial numbers (CFU/ml) (Bifidobacterium; 1% prebiotic alone): 1.1 × × 10^7 CFU/ml
Bacterial numbers (CFU/ml) (Lactobacterium; 1% prebiotic alone): 1.1 × × 10^6 CFU/ml

Betaglucan [C4]
Bacterial numbers (CFU/ml) (Bifidobacterium; 1% prebiotic alone): 1.2 × × 10^7 CFU/ml
Bacterial numbers (CFU/ml) (Lactobacterium; 1% prebiotic alone): 1.1 × × 10^6 CFU/ml

CLA [C5]
Bacterial numbers (CFU/ml) (Bifidobacterium; 1% fatty acid alone): 3.5 × × 10^6 CFU/ml
Bacterial numbers (CFU/ml) (Lactobacterium; 1% fatty acid alone): 4.2 × × 10^5 CFU/ml

CLA-SE [C7]
Bacterial numbers (CFU/ml) (Bifidobacterium; 1% fatty acid alone): 2.9 × × 10^6 CFU/ml
Bacterial numbers (CFU/ml) (Lactobacterium; 1% fatty acid alone): 4.4 × × 10^5 CFU/ml

CLA-TG [C6]
Bacterial numbers (CFU/ml) (Bifidobacterium; 1% fatty acid alone): 2.1 × × 10^6 CFU/ml
Bacterial numbers (CFU/ml) (Lactobacterium; 1% fatty acid alone): 4.4 × × 10^5 CFU/ml

Lactolin [C3]
Bacterial numbers (CFU/ml) (Bifidobacterium; 1% prebiotic alone): 1.6 × × 10^7 CFU/ml
Bacterial numbers (CFU/ml) (Lactobacterium; 1% prebiotic alone): 1.5 × × 10^6 CFU/ml
